SMILES | melting point
C=CC(=O)OC1CC2CCC1(C)C2(C)C (stereo unspecified) | 97 °C
C=CCC1(C(C)C)C(=O)NC(=O)N(C)C1=O (stereo unspecified) | 56.5 °C
COc1ccc2c3c1OC1C(O)CC=C4C(C2)N(C)CCC431 (stereo unspecified) | 128 °C
CCCCCCCCCCCCCCCC(=O)OCCO | 51 °C
O=C(O)C=Cc1ccc(Br)cc1F | 219 to 223 °C
CCOC(=O)c1cc(-c2ccc(Br)s2)on1 | 51 to 53 °C
Nc1ccc(-c2cn3c(n2)SCC3)cc1 | 225 to 226 °C
C=CCC1(C2C=CCC2)C(=O)NC(=O)NC1=O (stereo unspecified) | 140 °C
O=C1CC[C@@H](COC(c2ccccc2)(c2ccccc2)c2ccccc2)O1 | 148 to 152 °C
O=C(CCCl)c1ccc(F)cc1 | 47.5 °C
CCCCCOc1ccc(/N=N/c2ccc(CCCC)cc2)cc1 | 40.5 to 43 °C
Cn1c(=O)c(C2=NNC(=O)C2=Cc2ccccc2O)c(O)c2ccccc21 | 240 °C
COC(=O)CCC(C)C1CCC2C3C(OC(C)=O)C(Br)C4CCCCC4(C)C3CCC12C (stereo unspecified) | 158 to 159 °C
CCN(CC)c1ccc2cc(C(=O)c3cc4ccc(N(CC)CC)cc4oc3=O)c(=O)oc2c1 | 214 °C
CCOC(=O)C(C#N)=C(N)c1cc2ccccc2oc1=O | 247 to 249 °C
CC(=O)OCC1OC(OC2(COC(C)=O)OC(COC(C)=O)C(OC(C)=O)C2OC(C)=O)C(OC(C)=O)C(OC(C)=O)C1OC(C)=O (stereo unspecified) | 86.5 °C
Nc1ccc(C=C/C(=N/O)c2ccccc2)cc1 | 138 to 139 °C
N#Cc1ccc(C(Cl)=Cc2ccc(C=C(Cl)c3ccc(C#N)cc3[N+](=O)[O-])cc2)c([N+](=O)[O-])c1 | 296 °C
CC(C(=O)O)c1ccc(C(=O)c2cccs2)cc1 (stereo unspecified) | 124 °C
COC(=O)c1cc(S(=O)(=O)Cl)oc1C | 35 to 38 °C

SMILES | melting point
C=COCCCCCCCCCC | -41 °C
COc1ccccc1-c1nnc2n1NC(c1ccccc1)S2 (stereo unspecified) | 208 °C
COc1c(OC)c(OC(C)=O)c2cc(Br)ccc2c1OC(C)=O | 102 °C
COC(=O)c1sc2scc(C)c2c1C | 136 to 139 °C
Brc1cccc(COc2ccccc2)c1 | 38 to 39 °C
CCCCCCCCCCCCOC(=O)c1ccccc1C(=O)OCCCCCCCCCCCC | 21 to 23 °C
CC(=O)c1cc(Br)cc([N+](=O)[O-])c1O | 131 °C
O=C(Nc1cccnc1Cl)c1ccccc1 | 91 to 92 °C
CC(C)(C)OC(=O)N1CCCC(Oc2ccccc2[N+](=O)[O-])C1 (stereo unspecified) | 74 to 75 °C
Cc1cc(-c2ccccc2)nnc1NCCN1CCOCC1 | 122 °C
CC(=O)CS(C)(=O)=O | 54 °C
CC(C)N(C(=O)C(C(F)(F)F)C(F)(F)F)C(C)C | 53 °C
BrC(c1ccccc1)c1ccccc1 | 45 °C
CC(C1=CCC(C(=O)O)C(C)(C)O1)(c1ccccc1)c1ccccc1 (stereo unspecified) | 145 °C
O=[N+]([O-])c1ccc(-c2nnc3n2NCS3)cc1 | 218 °C
O=C1CN=C(c2ccccc2)c2cc(Cl)ccc2N1CC(F)(F)F | 164 °C
Cc1nc(-c2ccc(Cl)cc2)sc1C(=O)Cl | 180 to 183 °C
CN(C)c1nncc(-c2cnnc(N(C)C)n2)n1 | 224 °C
Cc1ccc(F)c(O)c1Cl | 49 °C
CCOC(=O)c1cc(C)nc(Cl)c1C#N | 58 to 60 °C

Results, then the compound that gave them:

melting point | SMILES
174 to 176 °C | NC(=O)NNc1ccccc1
109 °C | CCCCCCCCCCCCCCCCCC(N)=O
120 to 121 °C | CCOC(=O)C(C#N)=Cc1ccc(-c2ccccc2OC)o1
98.5 to 100 °C | COc1ccc(-c2cc3ccccc3cn2)cc1
232 to 233 °C | CC12CCC(CC/C1=N\Nc1ccc([N+](=O)[O-])cc1[N+](=O)[O-])C2(C)C (stereo unspecified)
182 °C | COc1ccccc1C(=O)N(NC(=O)c1ccccc1)C(C)(C)C
185 °C | Oc1c(-c2ccccn2)n(N2CCCCC2)c2ccccc12
52 °C | COc1cc(F)ccc1C(C)=O
210 °C | Cc1cc(C)c(C[S+]([O-])Cc2c(C)cc(C)cc2C)c(C)c1
56 °C | CN(C)CCC=C1c2ccccc2CSc2ccccc21
147 to 150 °C | CC(=CNNc1nc(C)cc(C)n1)c1cccnc1
26 to 30 °C | Cc1cccc(Br)c1[N+](=O)[O-]
102 °C | CCOC(=O)C(C)C(O)(c1ccccc1)c1ccccc1 (stereo unspecified)
71 to 73 °C | FC(F)(F)c1ccc(-n2ccnc2)cc1
51 °C | COC(=O)c1ccc(OC)nc1
126 to 127 °C | CSc1nc(N)c(C(=O)c2ccccc2)s1
-5.9 °C | CCCCOC(=O)c1ccccc1O
60 to 62 °C | COC1=C(OC)/C(=C/C=O)OC1=O
132 to 134 °C | Cc1nccn1-c1ccccc1N
121 °C | O=C(c1ccc(C(=O)C(Cl)(Cl)Cl)cc1)C(Cl)(Cl)Cl
196 °C | CCOC(=O)NC(N)=O
162 °C | CCN(CC)CC(=O)OCC(=O)C1(O)CCC2C3CCC4=CC(=O)CCC4(C)C3C(O)CC21C (stereo unspecified)
93.5 °C | COc1c(C)c2c(c(O)c1CC=C(C)CCC(=O)OCCN1CCOCC1)C(=O)OC2

melting point | SMILES
136 °C | NC(=O)c1ccc(F)cc1C(F)(F)F
78 °C | CC(=O)c1cnc2ccccc2n1
228 °C | O=[N+]([O-])c1ccc(NN=C2c3ccccc3C2Cl)c([N+](=O)[O-])c1 (stereo unspecified)
44.5 °C | Cc1cc(C)c(N=C=O)c(C)c1
131 °C | O=C(O)c1ccc(CBr)c([N+](=O)[O-])c1
144 °C | CC(=O)NCCc1ccccc1NC(C)=O
115 to 118 °C | Cc1ccc(C)c(C(O)C(=O)O)c1 (stereo unspecified)
102 to 103 °C | CCOC(=O)C(C#N)=NNc1ccccc1[N+](=O)[O-]
340 °C | Nc1nc(O)nc(C23CC4CC(CC(C4)C2)C3)n1
119 to 120 °C | CC(C)c1nsc(N)n1
97 °C | COC(=O)c1ccc(OC)c(Br)c1
143 °C | Cc1ccc(C(c2ccc(C)o2)c2cc([N+](=O)[O-])ccc2O)o1
196 to 197 °C | NC(=NO)c1cccc(C(=O)O)c1
56 °C | O=[N+]([O-])c1cc(F)c(Br)cc1F
160 °C | Cc1cc(C)cc(C2Oc3c(Cl)c(Cl)c(Cl)c(Cl)c3O2)c1
127 to 128 °C | c1ccc(CON=C(c2cc3ccccc3o2)c2cc3ccccc3o2)cc1
308 to 309 °C | CN(C)c1ccc(/C=C(/C#N)c2nc3ccccc3c(=O)[nH]2)cc1
162 °C | c1ccc(-c2nc3ccccc3nc2-c2ccc3c4c(cccc24)CC3)cc1
30 to 34 °C | CC(C)(C)[C@H](N)CO
58 °C | CCCCCCCCCCCCCCCCCCS(=O)(=O)Cl
164 °C | COc1ccc(-c2csc(/C(C#N)=N/Nc3cccc(C)c3C)n2)cc1
217 to 218 °C | Cc1ccc(Sc2ccc(C=CC(=O)O)cc2[N+](=O)[O-])cc1
193 to 194 °C | Cc1nc(COc2ccc(C(N)=NO)cc2)cs1
